One data set relates to HGF/MET system. Kind of data set: Phospho-MET ELISA. Type of data set: cell-based. The conditions noted are these: HEK293 cells; with 1 ng/mL recombinant HGF; 15 minutes; augmentation of MET phosphorylation (pMET ELISA). The essentials:
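Serum-starved (≥8 h) HEK293 cells treated with compound plus 1 ng/mL recombinant HGF for 15 min at 37° C in triplicate, then lysed in RIPA. Equal protein (50–100 μg, BCA-normalized) run in pMET sandwich ELISA, A450 read. Responses scaled 1–10 between 1 ng/mL and 10 ng/mL HGF means, using peak efficacy.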

Data set [1] is described as follows: Parallel artificial membrane permeability assay (PAMPA). The class given is in vitro ADME. The note with it: PBS, room temperature for 5 hours, 200 uM in donor well. In outline: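 Compounds in PBS (initial donor concentration 200 uM) placed in donor wells against PBS acceptor, 5 replicates, incubated 5 hours at room temperature. Donor and acceptor concentrations quantified by UV plate reading against per-compound 6-point standard curves; permeability and membrane retention calculated from concentrations, volumes, filter area and time.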

Data set [2] in a line: In vitro stability in simulated gastric and intestinal fluids. The note with it: 37° C. The class given is in vitro ADME. Here is the method: Bioavailability can be estimated by compound stability when exposed to conditions in the body. As an initial assessment of stability properties in a variety of conditions present in animals, exemplary compounds were tested for stability in a battery of simulated body compartments. Compounds were tested for stability in the following solutions: simulated gastric fluid (SGF: 34.2 mM NaCl, pH 1.2), simulated gastric fluid with the digestive enzyme pepsin (SGF+Enzyme: SGF with 3.2 mg/ml pepsin), simulated intestinal fluid with the mixture of enzymes in porcine pancreatin (SIF+Enzyme: 28.7 mM NaH2PO4, 105.7 mM NaCl, pH 6.8, 10 mg/ml pancreatin), rat plasma, and human plasma.
Test compounds were incubated at a final concentration of 5 μM in the above solutions at 37° C. with samples removed at the following time points: 0, 1, 2, and 4 hours. Reactions were stopped and prepared for quantification by addition of excess quench solution containing an internal standard (acetonitrile, 200 ng/mL bucetin). Test compound and internal standard in each sample was quantified by LC-MS/MS, and after internal normalization to bucetin, test compound concentration was expressed as a percentage of concentration at the 0-hour time point. Stability in the relevant test solution was then determined by the percent remaining at the 4-hour time point.

Data set [3] concerns hepatocyte (HepG2) cell cultures. The data set is described as follows: Cytotoxicity assay (LDH release). Type of data set: cell-based. The note with it: HepG2 cells, 48 hours, 0.1 to 100 μM. In outline:
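Cells in EMEM+10% FBS treated 48 h at 37° C with compounds at 0.1-100 μM; cerivastatin 0.5 μM served as positive control. LDH released into supernatant measured colorimetrically at 490 nm, range set by untreated and full-lysis controls; >20% above negative control counted as cytotoxic.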

Some results are limits rather than exact numbers.

Results on one molecule are retold here after patent publication US20250041307A1, “Uses of Bicyclic Compounds for the Treatment of Diseases” (Athira Pharma, Inc., priority 2021, published 2025).

Regarding `CCC(C)CN1CC2N(Cc3ccc(C(F)(F)F)cc3)CCC(=O)N2[C@@H](C)C1=O` (stereo partly drawn) [Compound 5a], the Potency result in the data set on HGF/MET system was “+ (+ indicates maximum potency at or above 100 nM)”. Moreover, the Papp at 5 h, 200 uM in data set [1] is under 2 ×10⁻⁶ cm/s. Further, the “SGF, compound remaining after 4 hours” value in data set [2] (simulated gastric fluid pH 1.2, 5 μM) is “+++ (+++ indicates 80-99% compound remaining after 4 hours)”. Besides, the “SGF + Enz, compound remaining after 4 hours” value in data set [2] (simulated gastric fluid with 3.2 mg/ml pepsin, 5 μM) is given as “+ (+ indicates 20-39% compound remaining after 4 hours)”. The “SIF, compound remaining after 4 hours” value in data set [2] (simulated intestinal fluid pH 6.8 with 10 mg/ml pancreatin, 5 μM) is “+++ (+++ indicates 80-99% compound remaining after 4 hours)”. Besides, in data set [3], the Cytotoxicity result is “++++ (++++ indicates non-toxic at 100 μM)”.
